From patent publication US20150038438A1, “ANTIBACTERIAL COMPOUNDS AND METHODS FOR USE” (PTC THERAPEUTICS, INC., priority 2011, published 2015) come the findings set out here.

Structures are written as SMILES. Values after ≈ are worked out from the molar mass of the structure shown. Where a name gives a salt, the structure may show the parent alone. Bounds are passed on as bounds.

What all share (assay): Antibacterial activity, microbroth dilution method (MIC)
Assay [1] relates to super sensitive Gram-negative Escherichia coli (E. coli) BAS849. In kind it is cell-based. Particulars: Escherichia coli; super sensitive Gram-negative E. coli BAS849; microbroth dilution; read-out: MIC, E. coli BAS849. The method, boiled down:
(§1)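 Read-out: visual absence of growth. The lowest concentration meeting this gives the MIC, expressed in μg/mL, with microbroth dilution as the method.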

The test system of assay [2] is Gram-positive Staphylococcus aureus (S. aureus) 29213. The class given is cell-based. Particulars: Staphylococcus aureus, Gram-positive S. aureus 29213. In short, it runs like this: as §1
Assay [3] concerns control Gram-negative E. coli 25922 strain. The class given is cell-based, Escherichia coli. The note with it: Escherichia coli. In short, it runs like this:
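In a microbroth dilution test, the minimum inhibitory concentration was defined as the lowest compound level preventing growth seen by eye, and was given in μg/mL.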

Take `CN(C)c1ccc2c(c1)CCCCc1c-2[nH]c(=O)c(C(=O)O)c1O` [Cpd 5, 10-(dimethylamino)-4-hydroxy-2-oxo-1,2,5,6,7,8-hexahydrobenzo[7,8]cycloocta[1,2-b]pyridine-3-carboxylic acid]: the MIC in assay [1] is < 1 µg/mL; in assay [2], 3.5 to 12.5 µg/mL (≈ 10.7 to 38.1 µM); in assay [3], 12.5 to 150 µg/mL (≈ 38.1 to 457 µM).
Taken in the same sequence, the figures for `CNCc1cc2c3c(ccc2n1C)-c1[nH]c(=O)c(C(=O)O)c(O)c1CCC3.Cl` [Cpd 60, 7-hydroxy-1-methyl-2-((methylamino)methyl)-9-oxo-1,4,5,6,9,10-hexahydropyrido[2′,3′:3,4]cyclohepta[1,2-e]indole-8-carboxylic acid hydrochloride] were 3.5 to 12.5 µg/mL, 12.5 to 150 µg/mL and 12.5 to 150 µg/mL.
Take `CNCc1cc2cc3c(cc2n1C)CCCc1c-3[nH]c(=O)c(C(=O)O)c1O.Cl` [Cpd 22, 4-hydroxy-9-methyl-10-((methylamino)methyl)-2-oxo-1,2,5,6,7,9-hexahydropyrido[3′,2′:6,7]cyclohepta[1,2-f]indole-3-carboxylic acid hydrochloride]: the figures for the MIC in assay [1], in assay [2] and in assay [3] were < 1 µg/mL, 3.5 to 12.5 µg/mL and < 1 µg/mL, respectively.
Regarding `CCNCc1cc2cc3c(cc2n1C)CCCc1cc(C(=O)O)c(=O)[nH]c1-3.Cl` [Cpd 54, 10-((ethylamino)methyl)-9-methyl-2-oxo-1,2,5,6,7,9-hexahydropyrido[3′,2′:6,7]cyclohepta[1,2-f]indole-3-carboxylic acid hydrochloride], the results for the MIC in assay [1], in assay [2] and in assay [3] were < 1 µg/mL, 12.5 to 150 µg/mL and < 1 µg/mL, respectively.
As for `CC(CN(C)C)NCc1cc2cc3c(cc2n1C)CCCc1c-3[nH]c(=O)c(C(=O)O)c1O.Cl.Cl` (stereo not drawn) [Cpd 160, 10-(((1-(dimethylamino)propan-2-yl)amino)methyl)-4-hydroxy-9-methyl-2-oxo-1,2,5,6,7,9-hexahydropyrido[3′,2′:6,7]cyclohepta[1,2-f]indole-3-carboxylic acid dihydrochloride], the figures for the MIC in assay [1], in assay [2] and in assay [3] were < 1 µg/mL, 12.5 to 150 µg/mL and 3.5 to 12.5 µg/mL, respectively.
With `CC1COc2cc(N3CCCC3)ccc2-c2[nH]c(=O)c(C(=O)O)c(O)c21` (stereo not drawn) [Cpd 83, 4-hydroxy-5-methyl-2-oxo-9-(pyrrolidin-1-yl)-1,2,5,6-tetrahydrobenz[2,3]oxepino[4,5-b]pyridine-3-carboxylic acid], the MIC is < 1 µg/mL in assay [1], 3.5 to 12.5 µg/mL (≈ 9.82 to 35.1 µM) in assay [2] and 12.5 to 150 µg/mL (≈ 35.1 to 421 µM) in assay [3].
Consider `CCCCCCCCNCc1cc2cc3c(cc2n1C)CCCc1c-3[nH]c(=O)c(C(=O)O)c1O.Cl` [Cpd 140, 4-hydroxy-9-methyl-10-((octylamino)methyl)-2-oxo-1,2,5,6,7,9-hexahydropyrido[3′,2′:6,7]cyclohepta[1,2-f]indole-3-carboxylic acid hydrochloride], for which the MIC in assay [1] is < 1 µg/mL; in assay [2] it was 1 to 3.5 µg/mL; in assay [3] it was 12.5 to 150 µg/mL.
Regarding `CCNCc1cc2cc3c(cc2n1C)C(C)CCc1c-3[nH]c(=O)c(C(=O)O)c1O.Cl` (stereo not drawn) [Cpd 63, 10-((ethylamino)methyl)-4-hydroxy-7,9-dimethyl-2-oxo-1,2,5,6,7,9-hexahydropyrido[3′,2′:6,7]cyclohepta[1,2-f]indole-3-carboxylic acid hydrochloride], the MIC lay in the range of 1 to 3.5 µg/mL in assay [1], 12.5 to 150 µg/mL in assay [2] and 3.5 to 12.5 µg/mL in assay [3].
As to `CN1CCc2c([nH]c(=O)c(C(=O)O)c2O)-c2ccc(N3CCCC3)cc21` [Cpd 93, 4-hydroxy-7-methyl-2-oxo-9-(pyrrolidin-1-yl)-2,5,6,7-tetrahydro-1H-benzo[b]pyrido[2,3-d]azepine-3-carboxylic acid], the MIC was in the range of 3.5 to 12.5 µg/mL (≈ 9.85 to 35.2 µM) in assay [1], 12.5 to 150 µg/mL (≈ 35.2 to 422 µM) in assay [2] and 12.5 to 150 µg/mL (≈ 35.2 to 422 µM) in assay [3].
For the compound `CN(C)c1ccc2c(c1)CCc1cc(C(=O)O)c(=O)[nH]c1-2` [Cpd 1, 8-(dimethylamino)-2-oxo-1,2,5,6-tetrahydrobenzo[h]quinoline-3-carboxylic acid], the MIC in assay [1] fell in the range of 3.5 to 12.5 µg/mL (≈ 12.3 to 44 µM); in assay [2], 12.5 to 150 µg/mL (≈ 44 to 528 µM); in assay [3], 12.5 to 150 µg/mL (≈ 44 to 528 µM).
Turning to `CC1COc2cc(N3C[C@@H]4[C@H](C3)[C@H]4N(Cc3ccccc3)Cc3ccccc3)ccc2-c2[nH]c(=O)c(C(=O)O)c(O)c21` (stereo partly drawn) [Cpd 85, 9-((cis,cis)-6-(dibenzylamino)-3-azabicyclo[3.1.0]hexan-3-yl)-4-hydroxy-5-methyl-2-oxo-1,2,5,6-tetrahydrobenzo[2,3]oxepino[4,5-b]pyridine-3-carboxylic acid hydrochloride], the minimal inhibitory concentration (MIC) in assay [1], in assay [2] and in assay [3] was 12.5 to 150 µg/mL each time.
In the case of `Cl.O=C(O)c1c(O)c2c([nH]c1=O)-c1ccc(N3CCC4(CCNC4)C3)cc1CCC2` (stereo not drawn) [Cpd 122, 4-hydroxy-2-oxo-9-(2,7-diazaspiro[4.4]nonan-2-yl)-2,5,6,7-tetrahydro-1H-benzo[6,7]cyclohepta[1,2-b]pyridine-3-carboxylic acid hydrochloride], the MIC in assay [1], in assay [2] and in assay [3] was 12.5 to 150 µg/mL throughout.
In the case of `CN1CCN(Cc2cc3cc4c(cc3n2C)CCCc2c-4[nH]c(=O)c(C(=O)O)c2O)CC1.Cl.Cl` [Cpd 42, 4-hydroxy-9-methyl-10-((4-methylpiperazin-1-yl)methyl)-2-oxo-1,2,5,6,7,9-hexahydropyrido[3′,2′:6,7]cyclohepta[1,2-f]indole-3-carboxylic acid dihydrochloride], the MIC in assay [1] was < 1 µg/mL; in assay [2], 3.5 to 12.5 µg/mL; in assay [3], 3.5 to 12.5 µg/mL.
Consider `CN(C)C1CCN(c2ccc3c(c2)CCCc2c-3[nH]c(=O)c(C(=O)O)c2O)CC1.Cl` [Cpd 116, 9-(4-(dimethylamino)piperidin-1-yl)-4-hydroxy-2-oxo-2,5,6,7-tetrahydro-1H-benzo[6,7]cyclohepta[1,2-b]pyridine-3-carboxylic acid hydrochloride], for which the MIC in assay [1] was 3.5 to 12.5 µg/mL; in assay [2], 12.5 to 150 µg/mL; in assay [3] it was 12.5 to 150 µg/mL.
In the case of `Cl.Cn1c(CNCC2CCCO2)cc2cc3c(cc21)CCCc1c-3[nH]c(=O)c(C(=O)O)c1O` (stereo not drawn) [Cpd 161, 4-hydroxy-9-methyl-2-oxo-10-((((tetrahydrofuran-2-yl)methyl)amino)methyl)-1,2,5,6,7,9-hexahydropyrido[3′,2′:6,7]cyclohepta[1,2-f]indole-3-carboxylic acid hydrochloride], the values for the minimum inhibitory concentration (MIC) in assay [1], in assay [2] and in assay [3] were < 1 µg/mL, 12.5 to 150 µg/mL and 1 to 3.5 µg/mL, respectively.
On to `O=C(O)c1c(O)c2c([nH]c1=O)-c1ccc(N3CCCC3)cc1NCC2` [Cpd 94, 4-hydroxy-2-oxo-9-(pyrrolidin-1-yl)-2,5,6,7-tetrahydro-1H-benzo[b]pyrido[2,3-d]azepine-3-carboxylic acid], for which the MIC in assay [1] is < 1 µg/mL; in assay [2], 12.5 to 150 µg/mL (≈ 36.6 to 439 µM); in assay [3] it was 1 to 3.5 µg/mL (≈ 2.93 to 10.3 µM).
Taken in the same sequence, the figures for `Cl.Cn1c(CNC(C)(C)C)cc2cc3c(cc21)NCCc1c-3[nH]c(=O)c(C(=O)O)c1O` [Cpd 102, 10-((tert-butylamino)methyl)-4-hydroxy-9-methyl-2-oxo-1,2,5,6,7,9-hexahydropyrido[2′,3′:4,5]azepino[3,2-f]indole-3-carboxylic acid hydrochloride] were 1 to 3.5 µg/mL, 12.5 to 150 µg/mL and 3.5 to 12.5 µg/mL.
